Results reported in PubChem BioAssay AID248 (DTP/NCI, 2004).
Values joined by “and” are separate entries in the source; they are usually repeats but may differ in a detail not shown here. Equal entries are not always repeated. Inconclusive results and toxic doses are left out. Cut-off read from the data, not from the text of the source: active = T/C of 150% or more; inactive = T/C below 125%.

Test system: L1210 leukemia ip in BDF1 mice, survival T/C
Test: NCI In Vivo Anticancer Drug Screen. Data for tumor model L1210 Leukemia (intraperitoneal) in B6D2F1 (BDF1) mice
Conditions: endpoint: mean survival time, higher = longer survival
Method in brief: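 Read-out is survival time, reported as the treated-group measurement over the vehicle-control measurement.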

[1] = dose: 25.0 mg/kg/injection, schedule: Q04DX002 (ip), vehicle: saline with Tween-80
[2] = dose: 50.0 mg/kg/injection, schedule: Q04DX002 (ip), vehicle: saline with Tween-80
[3] = dose: 100.0 mg/kg/injection, schedule: Q04DX002 (ip), vehicle: saline with Tween-80
[4] = dose: 50.0 mg/kg/injection, schedule: Q01DX001 (ip), vehicle: carboxymethylcellulose (CMC)
[5] = dose: 100.0 mg/kg/injection, schedule: Q01DX001 (ip), vehicle: carboxymethylcellulose (CMC)
[6] = dose: 100.0 mg/kg/injection, schedule: Q01DX001 (ip), vehicle: saline with Tween-80
[7] = dose: 100.0 mg/kg/injection, schedule: Q01DX009 (ip), vehicle: saline with Tween-80
[8] = dose: 100.0 mg/kg/injection, schedule: Q04DX003 (ip), vehicle: Klucel (hydroxypropylcellulose) (HPC)
[9] = dose: 200.0 mg/kg/injection, schedule: Q01DX001 (ip), vehicle: saline with Tween-80
[10] = dose: 200.0 mg/kg/injection, schedule: Q04DX003 (ip), vehicle: Klucel (hydroxypropylcellulose) (HPC)
[11] = dose: 400.0 mg/kg/injection, schedule: Q01DX001 (ip), vehicle: saline with Tween-80
[12] = dose: 400.0 mg/kg/injection, schedule: Q04DX003 (ip), vehicle: Klucel (hydroxypropylcellulose) (HPC)
[13] = dose: 100.0 mg/kg/injection, schedule: Q01DX001 (ip), vehicle: saline
[14] = dose: 200.0 mg/kg/injection, schedule: Q01DX001 (ip), vehicle: saline
[15] = dose: 400.0 mg/kg/injection, schedule: Q01DX001 (ip), vehicle: saline
[16] = dose: 200.0 mg/kg/injection, schedule: Q01DX001 (ip), vehicle: carboxymethylcellulose (CMC)
[17] = dose: 400.0 mg/kg/injection, schedule: Q01DX001 (ip), vehicle: carboxymethylcellulose (CMC)
[18] = dose: 100.0 mg/kg/injection, schedule: Q01DX009 (ip), vehicle: Klucel (hydroxypropylcellulose) (HPC)
[19] = dose: 100.0 mg/kg/injection, schedule: Q04DX002 (ip), vehicle: Klucel (hydroxypropylcellulose) (HPC)
[20] = dose: 200.0 mg/kg/injection, schedule: Q01DX009 (ip), vehicle: Klucel (hydroxypropylcellulose) (HPC)
[21] = dose: 200.0 mg/kg/injection, schedule: Q04DX002 (ip), vehicle: Klucel (hydroxypropylcellulose) (HPC)
[22] = dose: 400.0 mg/kg/injection, schedule: Q04DX002 (ip), vehicle: Klucel (hydroxypropylcellulose) (HPC)

Measured: T/C

CC(C)(C)c1cc(C#N)cc(Br)c1O
inactive: [1] 102 % of control | [2] 97 % of control | [3] 97 % of control and 102 % of control

Cc1cc(CC#N)c(CC#N)cc1C
inactive: [4] 110 % of control | dose: 50.0 mg/kg/injection, schedule: Q01DX009 (ip), vehicle: carboxymethylcellulose (CMC) 96 % of control and 117 % of control | dose: 50.0 mg/kg/injection, schedule: Q04DX002 (ip), vehicle: carboxymethylcellulose (CMC) 94 % of control and 102 % of control | dose: 50.0 mg/kg/injection, schedule: Q04DX003 (ip), vehicle: carboxymethylcellulose (CMC) 98 % of control | [5] 97 % of control | dose: 100.0 mg/kg/injection, schedule: Q01DX009 (ip), vehicle: carboxymethylcellulose (CMC) 100 % of control and 106 % of control | dose: 100.0 mg/kg/injection, schedule: Q04DX002 (ip), vehicle: carboxymethylcellulose (CMC) 102 % of control and 105 % of control | dose: 100.0 mg/kg/injection, schedule: Q04DX003 (ip), vehicle: carboxymethylcellulose (CMC) 95 % of control | dose: 200.0 mg/kg/injection, schedule: Q01DX009 (ip), vehicle: carboxymethylcellulose (CMC) 96 % of control | dose: 200.0 mg/kg/injection, schedule: Q04DX002 (ip), vehicle: carboxymethylcellulose (CMC) 97 % of control and 107 % of control

COc1cc(C)ccc1C(=O)c1ccc(C)cc1OC
inactive: [6] 100 % of control | [7] 98 % of control | [8] 86 % of control | [9] 100 % of control | dose: 200.0 mg/kg/injection, schedule: Q01DX009 (ip), vehicle: saline with Tween-80 92 % of control | [10] 93 % of control | [11] 92 % of control | dose: 400.0 mg/kg/injection, schedule: Q01DX009 (ip), vehicle: saline with Tween-80 103 % of control | [12] 93 % of control

O=C1NC(c2ccccc2)C(c2ccccc2)N1 (centres undefined)
inactive: [13] 97 % of control | [14] 100 % of control | [15] 97 % of control

CCCCCCCCCCCOc1ccc(C=Nc2ccc(C)cc2)cc1
inactive: [8] 101 % of control | [10] 98 % of control | [12] 98 % of control

O=C(OC1CC2CC1C1CCCCC21)c1ccc([N+](=O)[O-])cc1 (centres undefined)
inactive: [4] 94 % of control | [5] 105 % of control | [16] 100 % of control | [17] 96 % of control

Cc1ccc(C(CC(=O)O)CC(=O)O)c(O)c1
inactive: dose: 100.0 mg/kg/injection, schedule: Q01DX009 (ip), vehicle: gum acacia 96 % of control | dose: 100.0 mg/kg/injection, schedule: Q04DX003 (ip), vehicle: gum acacia 95 % of control | dose: 200.0 mg/kg/injection, schedule: Q01DX009 (ip), vehicle: gum acacia 93 % of control | dose: 200.0 mg/kg/injection, schedule: Q04DX003 (ip), vehicle: gum acacia 93 % of control | dose: 400.0 mg/kg/injection, schedule: Q01DX009 (ip), vehicle: gum acacia 88 % of control | dose: 400.0 mg/kg/injection, schedule: Q04DX003 (ip), vehicle: gum acacia 90 % of control

CCCCS(=O)(=O)OCCCCOS(=O)(=O)CCCC
inactive: dose: 240.0 mg/kg/injection, schedule: Q01DX Z (ip), vehicle: saline 100 % of control | dose: 360.0 mg/kg/injection, schedule: Q01DX Z (ip), vehicle: saline 115 % of control | dose: 810.0 mg/kg/injection, schedule: Q01DX Z (ip), vehicle: saline 90 % of control

COC1CC(OC2C(C)C(=O)OC(C)C(C)C(OC(C)=O)C(C)C(=O)C3(CO3)CC(C)C(OC3OC(C)CC(N(C)C)C3OC(C)=O)C2C)OC(C)C1OC(C)=O (centres undefined)
inactive: [5] 108 % of control | [16] 113 % of control | [17] 108 % of control

COc1cc(Br)c(CC(=O)c2c[nH]c3ccc(Br)cc23)cc1OC
inactive: dose: 50.0 mg/kg/injection, schedule: Q01DX001 (ip), vehicle: saline 100 % of control | [13] 94 % of control | [14] 105 % of control | [15] 94 % of control

O=S(=O)(F)c1cc(Cl)ccc1CBr
inactive: [1] 96 % of control | [2] 100 % of control | [3] 93 % of control | dose: 200.0 mg/kg/injection, schedule: Q04DX002 (ip), vehicle: saline with Tween-80 104 % of control | dose: 400.0 mg/kg/injection, schedule: Q04DX002 (ip), vehicle: saline with Tween-80 101 % of control

CC(C)OP(=O)(CCCCCCCCCCP(=O)(OC(C)C)OC(C)C)OC(C)C
inactive: dose: 100.0 mg/kg/injection, schedule: Q04DX002 (ip), vehicle: saline 113 % of control | dose: 200.0 mg/kg/injection, schedule: Q04DX002 (ip), vehicle: saline 102 % of control | dose: 400.0 mg/kg/injection, schedule: Q04DX002 (ip), vehicle: saline 98 % of control

N=C(N)c1ccc(-c2nc3ccc(C(=N)N)cc3[nH]2)cc1
inactive: dose: 12.5 mg/kg/injection, schedule: Q04DX003 (ip), vehicle: saline 100 % of control and 103 % of control | dose: 25.0 mg/kg/injection, schedule: Q04DX003 (ip), vehicle: saline 100 % of control and 103 % of control | dose: 50.0 mg/kg/injection, schedule: Q04DX003 (ip), vehicle: saline 100 % of control and 103 % of control

S=C(Nc1ccccc1)Nc1nccs1
inactive: [13] 104 % of control | [8] 105 % of control | [14] 101 % of control | [10] 101 % of control | [15] 101 % of control | [12] 103 % of control

Nc1ccc2c(c1)Cc1c-2cc(I)c(O)c1I
inactive: [5] 98 % of control | [16] 101 % of control | [17] 101 % of control

Cc1cccc(C)c1NC(=O)N1CCN(C)CC1
inactive: [1] 108 % of control | [2] 111 % of control | [18] 108 % of control | [19] 88 % of control | [3] 101 % of control | [20] 103 % of control

CN/C([S-])=N/N=C/C(=N/N=C(\[S-])NC)c1ccc(-c2ccccc2)cc1.[Cu+2]
inactive: [19] 106 % of control | [21] 95 % of control | [22] 100 % of control

Cc1cc(N(CCCl)CCCl)ccc1N=Nc1ccccc1C(=O)[O-].Cc1cc(N(CCCl)CCCl)ccc1N=Nc1ccccc1C(=O)[O-].[Cu+2]
inactive: dose: 2.0 mg/kg/injection, schedule: Q01DX015 (ip), vehicle: carboxymethylcellulose (CMC) 111 % of control | dose: 4.0 mg/kg/injection, schedule: Q01DX015 (ip), vehicle: carboxymethylcellulose (CMC) 117 % of control | dose: 8.0 mg/kg/injection, schedule: Q01DX015 (ip), vehicle: carboxymethylcellulose (CMC) 120 % of control | dose: 15.0 mg/kg/injection, schedule: Q01DX015 (ip), vehicle: carboxymethylcellulose (CMC) 123 % of control

CC(=O)OCCc1ccccc1C
inactive: [19] 112 % of control | [21] 104 % of control | [22] 101 % of control

O=C(O)c1ccc(CCCCc2ccccc2)cc1
inactive: dose: 25.0 mg/kg/injection, schedule: Q01DX001 (ip), vehicle: saline with Tween-80 103 % of control | dose: 50.0 mg/kg/injection, schedule: Q01DX001 (ip), vehicle: saline with Tween-80 121 % of control | [6] 107 % of control

CCCCCC1(C)OCC(C)(C)N1O (centres undefined)
inactive: [13] 104 % of control | [14] 102 % of control | [15] 111 % of control

COc1c(C)c(C)c(OC(C)=O)c(C)c1COC(C)=O
inactive: dose: 25.0 mg/kg/injection, schedule: Q01DX009 (ip), vehicle: saline with Tween-80 90 % of control | dose: 50.0 mg/kg/injection, schedule: Q01DX009 (ip), vehicle: saline with Tween-80 95 % of control | [6] 98 % of control | [7] 95 % of control and 98 % of control | [9] 93 % of control | [11] 109 % of control

CCOC(=O)Nc1nn[nH]n1
inactive: [4] 92 % of control | [5] 97 % of control | [16] 101 % of control | [17] 90 % of control

O=[N+]([O-])c1ccc(S(=O)(=O)OCc2cccc(OS(=O)(=O)c3ccc([N+](=O)[O-])cc3)c2)cc1
inactive: [6] 100 % of control | [18] 94 % of control | [8] 100 % of control | [9] 104 % of control | [20] 93 % of control | [10] 95 % of control | [11] 102 % of control | dose: 400.0 mg/kg/injection, schedule: Q01DX009 (ip), vehicle: Klucel (hydroxypropylcellulose) (HPC) 107 % of control | [12] 102 % of control
